Measurements as given in patent publication US9765070B2, “Substituted oxopyridine derivatives” (Bayer Pharma Aktiengesellschaft, priority 2013, dated 2017).

Target: human plasma kallikrein (Homo sapiens (Human), UniProt P03952)
Experiment: Determination of the plasma kallikrein activity (fluorogenic substrate H-Pro-Phe-Arg-AMC)
Assay type: biochemical
Conditions: plasma kallikrein from Kordia 0.6 nM, 15 min preincubation, 30 min at 22° C., fluorescence
Description: a.5) Determination of the Plasma Kallikrein Activity
To determine the plasma kallikrein inhibition of the substances according to the invention, a biochemical test system is used which utilizes the reaction of a peptidic plasma kallikrein substrate to determine the enzymatic activity of human plasma kallikrein. Here, plasma kallikrein cleaves from the peptic plasma kallikrein substrate the C-terminal aminomethylcoumarin (AMC), the fluorescence of which is measured. The determinations are carried out in microtitre plates.
In each case 1 μl of the diluted substance solutions is placed into the wells of white microtitre plates from Greiner (384 wells). 20 μl of assay buffer (50 mM Tris/HCl pH 7.4; 100 mM sodium chloride solution; 5 mM of calcium chloride solution; 0.1% of bovine serum albumin) and 20 μl of plasma kallikrein from Kordia (0.6 nM in assay buffer) are then added successively. After 15 min of incubation, the enzyme reaction is started by addition of 20 μl of the substrate H-Pro-Phe-Arg-AMC dissolved in assay buffer (10 μM in assay buffer) from Bachem, the mixture is incubated at room temperature (22° C.) for 30 min and fluorescence is then measured (excitation: 360 nm, emission: 460 nm). The measured emissions of the test batches with test substance are compared to those of control batches without test substance (only dimethyl sulphoxide instead of test substance in dimethyl sulphoxide), and IC50 values are calculated from the concentration/activity relationships.

Chain of human plasma kallikrein (P03952 391-638): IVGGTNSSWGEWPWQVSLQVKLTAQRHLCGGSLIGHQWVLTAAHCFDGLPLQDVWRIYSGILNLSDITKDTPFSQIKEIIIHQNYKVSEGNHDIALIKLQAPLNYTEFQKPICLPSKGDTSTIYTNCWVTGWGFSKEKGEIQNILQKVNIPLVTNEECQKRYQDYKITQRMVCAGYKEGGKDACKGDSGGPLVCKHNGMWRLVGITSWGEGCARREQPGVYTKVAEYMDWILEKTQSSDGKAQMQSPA
Chain of human plasma kallikrein (P03952 20-390 partner): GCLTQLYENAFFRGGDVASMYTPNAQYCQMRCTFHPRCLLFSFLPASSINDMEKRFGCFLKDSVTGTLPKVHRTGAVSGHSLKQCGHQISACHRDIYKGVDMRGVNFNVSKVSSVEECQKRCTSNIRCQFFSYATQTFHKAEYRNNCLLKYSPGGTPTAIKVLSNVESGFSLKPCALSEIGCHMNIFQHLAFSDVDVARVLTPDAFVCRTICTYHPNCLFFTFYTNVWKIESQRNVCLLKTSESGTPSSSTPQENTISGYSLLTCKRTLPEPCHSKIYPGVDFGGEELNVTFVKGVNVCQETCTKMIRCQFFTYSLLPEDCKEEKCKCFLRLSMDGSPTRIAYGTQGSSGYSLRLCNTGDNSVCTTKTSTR

IC50 [nM] | Structure (SMILES)
3.2 | COCCC(C(=O)Nc1ccn2nccc2c1)n1cc(OC)c(-c2cc(Cl)ccc2C#N)cc1=O (single isomer, unassigned; enantiomer 1) [Example 36, 2-[4-(5-Chloro-2-cyanophenyl)-5-methoxy-2-oxopyridin-1(2H)-yl]-4-methoxy-N-(pyrazolo[1,5-a]pyridin-5-yl)butanamide (enantiomer 1)]
7 | CCOC(=O)c1cnc2ccc(NC(=O)C(CCOC)n3cc(OC)c(-c4cc(Cl)ccc4C#N)cc3=O)cn12 (racemic) [Example 10, Ethyl 6-({2-[4-(5-chloro-2-cyanophenyl)-5-methoxy-2-oxopyridin-1(2H)-yl]-4-methoxybutanoyl}amino)imidazo[1,2-a]pyridine-3-carboxylate (racemate)]
4.3 | COCCC(C(=O)Nc1ccn2nccc2c1)n1cc(OC)c(-c2cc(Cl)ccc2C#N)cc1=O (racemic) [Example 35, 2-[4-(5-Chloro-2-cyanophenyl)-5-methoxy-2-oxopyridin-1(2H)-yl]-4-methoxy-N-(pyrazolo[1,5-a]pyridin-5-yl)butanamide (racemate)]
61 | COc1cn(CC(=O)Nc2ccc3nc(C(=O)O)cn3c2)c(=O)cc1-c1cc(Cl)ccc1C#N [Example 6, 6-({[4-(5-Chloro-2-cyanophenyl)-5-methoxy-2-oxopyridin-1(2H)-yl]acetyl}amino)imidazo[1,2-a]pyridine-2-carboxylic acid]
51 | CCC(C(=O)Nc1ccn2ncc(Cl)c2c1)n1cc(OC)c(-c2cc(Cl)ccc2C#N)cc1=O (racemic) [Example 40, 2-[4-(5-Chloro-2-cyanophenyl)-5-methoxy-2-oxopyridin-1(2H)-yl]-N-(3-chloropyrazolo[1,5-a]pyridin-5-yl)butanamide (racemate)]
11 | COCCC(C(=O)Nc1ccn2ncc(Cl)c2c1)n1cc(OC)c(-c2cc(Cl)ccc2C#N)cc1=O (racemic) [Example 41, 2-[4-(5-Chloro-2-cyanophenyl)-5-methoxy-2-oxopyridin-1(2H)-yl]-N-(3-chloropyrazolo[1,5-a]pyridin-5-yl)-4-methoxybutanamide (racemate)]
130 | CCC(C(=O)Nc1ccc2nc(-c3ccc(F)cc3)cn2c1)n1cc(OC)c(-c2cc(Cl)ccc2C#N)cc1=O (racemic) [Example 18, 2-[4-(5-Chloro-2-cyanophenyl)-5-methoxy-2-oxopyridin-1(2H)-yl]-N-[2-(4-fluorophenyl)-imidazo[1,2-a]pyridin-6-yl]butanamide (racemate)]
13 | COCCC(C(=O)Nc1ccc2nccn2c1)n1cc(OC)c(-c2cc(Cl)ccc2C#N)cc1=O (racemic) [Example 13, 2-[4-(5-Chloro-2-cyanophenyl)-5-methoxy-2-oxopyridin-1(2H)-yl]-N-(imidazo[1,2-a]pyridin-6-yl)-4-methoxybutanamide (racemate)]
17 | CCC(C(=O)Nc1ccn2nccc2c1)n1cc(OC)c(-c2cc(Cl)ccc2C#N)cc1=O (racemic) [Example 34, 2-[4-(5-Chloro-2-cyanophenyl)-5-methoxy-2-oxopyridin-1(2H)-yl]-N-(pyrazolo[1,5-a]pyridin-5-yl)butanamide (racemate)]
13 | CCc1nnc2ccc(NC(=O)C(CCOC)n3cc(OC)c(-c4cc(Cl)ccc4C#N)cc3=O)cn12 (racemic) [Example 23, 2-[4-(5-Chloro-2-cyanophenyl)-5-methoxy-2-oxopyridin-1(2H)-yl]-4-methoxy-N-(3-ethyl[1,2,4]triazolo[4,3-a]pyridin-6-yl)butanamide (racemate)]
11 | COc1cn(C(Cc2cnco2)C(=O)Nc2ccc3nccn3c2)c(=O)cc1-c1cc(Cl)ccc1C#N (racemic) [Example 29, 2-[4-(5-Chloro-2-cyanophenyl)-5-methoxy-2-oxopyridin-1(2H)-yl]-N-(imidazo[1,2-a]pyridin-6-yl)-3-(1,3-oxazol-5-yl)propanamide (racemate)]
13 | CCC(C(=O)Nc1ccn2cc(C(=O)O)nc2c1)n1cc(OC)c(-c2cc(Cl)ccc2C#N)cc1=O (racemic) [Example 3, 7-({2-[4-(5-Chloro-2-cyanophenyl)-5-methoxy-2-oxopyridin-1(2H)-yl]butanoyl}amino)imidazo[1,2-a]pyridine-2-carboxylic acid (racemate)]
23 | CCC(C(=O)Nc1ccc2nncn2c1)n1cc(OC)c(-c2cc(Cl)ccc2C#N)cc1=O (racemic) [Example 20, 2-[4-(5-Chloro-2-cyanophenyl)-5-methoxy-2-oxopyridin-1(2H)-yl]-N-([1,2,4]triazolo[4,3-a]pyridin-6-yl)butanamide (racemate)]
8.8 | COc1cn(C(Cc2ccccn2)C(=O)Nc2ccc3nccn3c2)c(=O)cc1-c1cc(Cl)ccc1C#N (racemic) [Example 28, 2-[4-(5-Chloro-2-cyanophenyl)-5-methoxy-2-oxopyridin-1(2H)-yl]-N-(imidazo[1,2-a]pyridin-6-yl)-3-(pyridin-2-yl)propanamide (racemate)]
50 | COCCC(C(=O)Nc1ccc2cncn2c1)n1cc(Cl)c(-c2cc(Cl)ccc2C#N)cc1=O (racemic) [Example 27, 2-[5-Chloro-4-(5-chloro-2-cyanophenyl)-2-oxopyridin-1(2H)-yl]-N-(imidazo[1,5-a]pyridin-6-yl)-4-methoxybutanamide (racemate)]
4.9 | COCCC(C(=O)Nc1ccn2cc(C(N)=O)nc2c1)n1cc(OC)c(-c2cc(Cl)ccc2C#N)cc1=O (racemic) [Example 12, 7-({2-[4-(5-Chloro-2-cyanophenyl)-5-methoxy-2-oxopyridin-1(2H)-yl]-4-methoxybutanoyl}amino)imidazo[1,2-a]pyridine-2-carboxamide (racemate)]
23 | COCCC(C(=O)Nc1ccc2nnc(CN(C)C)n2c1)n1cc(OC)c(-c2cc(Cl)ccc2C#N)cc1=O (racemic) [Example 25, 2-[4-(5-Chloro-2-cyanophenyl)-5-methoxy-2-oxopyridin-1(2H)-yl]-N-{3-[(dimethylamino)-methyl][1,2,4]triazolo[4,3-a]pyridin-6-yl}-4-methoxybutanamide (racemate)]
16 | CCC(C(=O)Nc1ccc2nc(C(=O)O)cn2c1)n1cc(OC)c(-c2cc(Cl)ccc2C#N)cc1=O (racemic) [Example 2, 6-({2-[4-(5-Chloro-2-cyanophenyl)-5-methoxy-2-oxopyridin-1(2H)-yl]butanoyl}amino)imidazo[1,2-a]pyridine-2-carboxylic acid (racemate)]
4.8 | COc1cn(C(C[C@@H]2CCCCO2)C(=O)Nc2ccc3nc(C(=O)O)cn3c2)c(=O)cc1-c1cc(Cl)ccc1C#N (mixture of isomers) [Example 9, 6-({2-[4-(5-Chloro-2-cyanophenyl)-5-methoxy-2-oxopyridin-1(2H)-yl]-3-[(2S)-tetrahydro-2H-pyran-2-yl]propanoyl}amino)imidazo[1,2-a]pyridine-2-carboxylic acid (mixture of enantiomerically pure diastereomers)]
5 | CCOC(=O)c1cn2ccc(NC(=O)C(CCOC)n3cc(OC)c(-c4cc(Cl)ccc4C#N)cc3=O)cc2n1 (racemic) [Example 11, Ethyl 7-({2-[4-(5-chloro-2-cyanophenyl)-5-methoxy-2-oxopyridin-1(2H)-yl]-4-methoxybutanoyl}amino)imidazo[1,2-a]pyridine-2-carboxylate (racemate)]
44 | CCC(C(=O)Nc1ccc2nccn2c1)n1cc(OC)c(-c2cc(Cl)ccc2C#N)cc1=O (racemic) [Example 4, 2-[4-(5-Chloro-2-cyanophenyl)-5-methoxy-2-oxopyridin-1(2H)-yl]-N-(imidazo[1,2-a]pyridin-6-yl)butanamide (racemate)]
8.3 | COCCC(C(=O)Nc1ccc2nnc(C)n2c1)n1cc(OC)c(-c2cc(Cl)ccc2C#N)cc1=O (racemic) [Example 22, 2-[4-(5-Chloro-2-cyanophenyl)-5-methoxy-2-oxopyridin-1(2H)-yl]-4-methoxy-N-(3-methyl[1,2,4]triazolo[4,3-a]pyridin-6-yl)butanamide (racemate)]
31 | COc1cn(C(CC2CCC2)C(=O)Nc2ccc3nccn3c2)c(=O)cc1-c1cc(Cl)ccc1C#N (racemic) [Example 15, 2-[4-(5-Chloro-2-cyanophenyl)-5-methoxy-2-oxopyridin-1(2H)-yl]-3-cyclobutyl-N-(imidazo[1,2-a]pyridin-6-yl)propanamide (racemate)]
65 | COCCC(C(=O)Nc1ccc2nccn2c1)n1cc(Cl)c(-c2cc(Cl)ccc2C#N)cc1=O (racemic) [Example 14, 2-[5-Chloro-4-(5-chloro-2-cyanophenyl)-2-oxopyridin-1(2H)-yl]-N-(imidazo[1,2-a]pyridin-6-yl)-4-methoxybutanamide (racemate)]
24 | CCC(C(=O)Nc1ccc2ncc(Cl)n2c1)n1cc(OC)c(-c2cc(Cl)ccc2C#N)cc1=O (racemic) [Example 17, 2-[4-(5-Chloro-2-cyanophenyl)-5-methoxy-2-oxopyridin-1(2H)-yl]-N-(3-chloroimidazo[1,2-a]pyridin-6-yl)butanamide (racemate)]
25 | COCCC(C(=O)Nc1ccc2nc(-c3ccc(F)cc3)cn2c1)n1cc(OC)c(-c2cc(Cl)ccc2C#N)cc1=O (racemic) [Example 19, 2-[4-(5-Chloro-2-cyanophenyl)-5-methoxy-2-oxopyridin-1(2H)-yl]-N-[2-(4-fluorophenyl)-imidazo[1,2-a]pyridin-6-yl]-4-methoxybutanamide (racemate)]
